Measured values as given in the NIST ThermoML archive (doi:10.1016/j.jct.2013.02.023).
Values joined by “and” are separate entries in the source; they are usually repeats but may differ in a detail not shown here. Equal entries are not always repeated.

Assay: molar heat capacity at constant pressure
Settings: 101.33 kPa, relaxation calorimetry - Quantum Design PPMS

O=P([O-])([O-])OP(=O)([O-])[O-].O=P([O-])([O-])OP(=O)([O-])[O-].O=P([O-])([O-])OP(=O)([O-])[O-].[Fe+3].[Fe+3].[Fe+3].[Fe+3] [iron(III) diphosphate]
molar heat capacity at constant pressure
Settings | Crystal 2 | Crystal 3
1 K | – | 0.08105 J/K/mol
1.909 K | – | 0.1843 J/K/mol
2 K | – | 0.2057 J/K/mol
2.045 K | – | 0.2088 J/K/mol
2.21 K | – | 0.2418 J/K/mol
2.506 K | – | 0.3014 J/K/mol
2.763 K | – | 0.3632 J/K/mol
3 K | – | 0.4233 J/K/mol
3.058 K | – | 0.4449 J/K/mol
3.392 K | – | 0.553 J/K/mol
3.803 K | – | 0.7103 J/K/mol
4 K | – | 0.8002 J/K/mol
4.207 K | – | 0.9081 J/K/mol
4.685 K | – | 1.188 J/K/mol
5 K | – | 1.41 J/K/mol
5.203 K | – | 1.56 J/K/mol
5.797 K | – | 2.097 J/K/mol
6 K | – | 2.314 J/K/mol
6.489 K | – | 2.871 J/K/mol
7 K | – | 3.559 J/K/mol
7.172 K | – | 3.81 J/K/mol
7.975 K | – | 5.084 J/K/mol
8 K | – | 5.127 J/K/mol
8.875 K | – | 6.71 J/K/mol
9 K | – | 6.952 J/K/mol
10 K | – | 9.006 J/K/mol
10.03 K | – | 9.074 J/K/mol
11 K | – | 11.23 J/K/mol
11.16 K | – | 11.61 J/K/mol
12 K | – | 13.56 J/K/mol
12.39 K | – | 14.49 J/K/mol
13 K | – | 15.98 J/K/mol
13.77 K | – | 17.87 J/K/mol
14 K | – | 18.43 J/K/mol
15 K | – | 20.84 J/K/mol
15.31 K | – | 21.61 J/K/mol
16 K | – | 23.37 J/K/mol
17 K | – | 26.01 J/K/mol and 26.02 J/K/mol
18 K | – | 28.75 J/K/mol
18.85 K | – | 31.22 J/K/mol
19 K | – | 31.74 J/K/mol and 31.7 J/K/mol
19.52 K | – | 33.09 J/K/mol
20 K | – | 34.42 J/K/mol
20.61 K | – | 36.2 J/K/mol
20.9 K | – | 37.11 J/K/mol
21.09 K | – | 37.43 J/K/mol
21.6 K | – | 38.93 J/K/mol
21.81 K | – | 39.43 J/K/mol
22.11 K | – | 40.45 J/K/mol
22.85 K | – | 42.81 J/K/mol
23.25 K | – | 44.02 J/K/mol
23.87 K | – | 46 J/K/mol
23.89 K | – | 46.12 J/K/mol
24.08 K | – | 46.85 J/K/mol
24.28 K | – | 47.45 J/K/mol
24.47 K | – | 48.12 J/K/mol
24.67 K | – | 48.81 J/K/mol
24.88 K | – | 49.5 J/K/mol
25 K | – | 49.88 J/K/mol
25.08 K | – | 50.12 J/K/mol
25.28 K | – | 50.75 J/K/mol
25.47 K | – | 51.26 J/K/mol
25.67 K | – | 51.84 J/K/mol
25.81 K | – | 52.19 J/K/mol
25.87 K | – | 52.46 J/K/mol
26.07 K | – | 53.07 J/K/mol
26.27 K | – | 53.83 J/K/mol
26.48 K | – | 54.56 J/K/mol
26.69 K | – | 55.35 J/K/mol
26.9 K | – | 56.09 J/K/mol
27.11 K | – | 56.75 J/K/mol
27.3 K | 57.27 J/K/mol | 57.27 J/K/mol
27.32 K | 57.27 J/K/mol | –
27.52 K | 56.92 J/K/mol | –
27.7 K | 56.9 J/K/mol | –
27.91 K | 56.91 J/K/mol | –
28.04 K | 57.08 J/K/mol | –
28.11 K | 57.21 J/K/mol | –
28.31 K | 57.58 J/K/mol | –
28.53 K | 58.14 J/K/mol | –
28.63 K | 58.29 J/K/mol | –
28.71 K | 58.58 J/K/mol | –
28.91 K | 59.09 J/K/mol | –
28.99 K | 59.36 J/K/mol | –
29.12 K | 59.63 J/K/mol | –
29.32 K | 60.15 J/K/mol | –
29.52 K | 60.68 J/K/mol | –
30 K | 62 J/K/mol | –
30.01 K | 62.04 J/K/mol | –
30.53 K | 63.41 J/K/mol | –
31.05 K | 65.12 J/K/mol | –
31.57 K | 66.61 J/K/mol | –
31.8 K | 67.25 J/K/mol | –
32.07 K | 68.15 J/K/mol | –
32.58 K | 69.63 J/K/mol | –
33.05 K | 71.25 J/K/mol | –
33.6 K | 73.01 J/K/mol | –
34.1 K | 74.7 J/K/mol | –
34.61 K | 76.5 J/K/mol | –
35 K | 77.84 J/K/mol | –
35.09 K | 78.15 J/K/mol | –
35.33 K | 78.91 J/K/mol | –
35.63 K | 80.11 J/K/mol | –
36.09 K | 81.71 J/K/mol | –
36.62 K | 83.72 J/K/mol | –
37.1 K | 85.44 J/K/mol | –
37.66 K | 87.47 J/K/mol | –
38.15 K | 89.5 J/K/mol | –
38.62 K | 91.24 J/K/mol | –
39.17 K | 93.41 J/K/mol | –
39.24 K | 93.52 J/K/mol | –
39.64 K | 95.31 J/K/mol | –
40 K | 96.72 J/K/mol | –
40.17 K | 97.41 J/K/mol | –
40.66 K | 99.59 J/K/mol | –
41.19 K | 101.8 J/K/mol | –
41.66 K | 103.8 J/K/mol | –
42.22 K | 106.31 J/K/mol | –
42.39 K | 107.06 J/K/mol | –
42.6 K | 108.05 J/K/mol | –
42.8 K | 108.92 J/K/mol | –
43 K | 109.89 J/K/mol | –
43.2 K | 110.79 J/K/mol | –
43.41 K | 111.83 J/K/mol | –
43.59 K | 112.41 J/K/mol | –
43.6 K | 112.72 J/K/mol | –
43.8 K | 113.72 J/K/mol | –
44.01 K | 114.89 J/K/mol | –
44.2 K | 115.83 J/K/mol | –
44.41 K | 116.9 J/K/mol | –
44.61 K | 118.08 J/K/mol | –
44.81 K | 119.19 J/K/mol | –
45 K | 120.36 J/K/mol | –
45.02 K | 120.42 J/K/mol | –
45.22 K | 121.8 J/K/mol | –
